In ChEMBL document CHEMBL6120974, “Hydrazide-Based Class I Selective HDAC Inhibitors Completely Reverse Chemoresistance Synergistically in Platinum-Resistant Solid Cancer Cells” (J Med Chem, 2024):
Active and inactive are the calls of the source. The calls are words filed in the database; no cut-off is given here.

Legend:
Histone deacetylase 8 [1] = target: T1, Histone deacetylase 8 (Homo sapiens, UniProt Q9BY41); test: Inhibition of recombinant HDAC8 (unknown origin) using Bos-Lys(TFA)-AMC as substrate preincubated with compound for 5 mins and measured after 90 mins by NOVOstar microplate reader analysis
T1 sequence (Q9BY41 whole entry): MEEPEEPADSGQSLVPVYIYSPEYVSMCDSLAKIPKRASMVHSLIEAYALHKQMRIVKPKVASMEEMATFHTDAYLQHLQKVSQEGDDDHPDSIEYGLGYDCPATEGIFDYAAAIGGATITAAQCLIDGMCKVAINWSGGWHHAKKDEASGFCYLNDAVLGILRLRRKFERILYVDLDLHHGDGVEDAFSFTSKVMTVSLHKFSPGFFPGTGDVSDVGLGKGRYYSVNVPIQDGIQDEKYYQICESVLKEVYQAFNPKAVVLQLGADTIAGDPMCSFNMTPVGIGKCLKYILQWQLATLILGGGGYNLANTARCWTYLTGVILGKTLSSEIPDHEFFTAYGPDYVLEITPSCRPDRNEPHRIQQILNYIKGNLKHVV

CAL-27 [2] = test: Cytotoxicity against human CAL-27 cells at < 100 uM assessed as reduction in cell viability incubated for 72 hrs by MTT assay; assay type: functional, cell-based
CAL-27 [3] = test: Inhibition of class I/6 HDAC (unknown origin) in human CAL-27 cells at < 10 uM using Boc-Lys(epsilon-Ac)-AMC as substrate preincubated with compound for 18 hrs followed by substrate addition and measured after 3 hrs by NOVOstar microplate reader analysis; assay type: cell-based
Cal27CisR [4] = test: Inhibition of class I/6 HDAC (unknown origin) in cisplatin resistant human Cal27CisR cells at < 10 uM using Boc-Lys(epsilon-Ac)-AMC as substrate preincubated with compound for 18 hrs followed by substrate addition and measured after 3 hrs by NOVOstar microplate reader analysis; assay type: cell-based
[5] = target: T2, Histone deacetylase 8 (Homo sapiens) (UniProt Q9BY41); test: Inhibition of recombinant HDAC8 (unknown origin) at > 10 uM using Bos-Lys(TFA)-AMC as substrate preincubated with compound for 5 mins and measured after 90 mins by NOVOstar microplate reader analysis relative to control; settings: time 95.0 min
T2 sequence (whole entry): T1 sequence (Q9BY41 whole entry)

A2780 [6] = test: Inhibition of class I/6 HDAC (unknown origin) in human A2780 cells at < 10 uM using Boc-Lys(epsilon-Ac)-AMC as substrate preincubated with compound for 18 hrs followed by substrate addition and measured after 3 hrs by NOVOstar microplate reader analysis; assay type: cell-based
Histone deacetylase 1 [7] = target: T3, Histone deacetylase 1 (Homo sapiens, UniProt Q13547); test: (§1) Inhibition of C-terminal 6-his/FLAG tagged full length human recombinant HDAC1 (1 to 482 end residues) expressed in sf9 cells at 10 uM using ZMAL (Z-Lys(Ac)-AMC as fluorogenic substrate preincubated with compound for 60 mins followed by substrate addition and measured after 90 mins by fluorescence based microplate reader analysis relative to control; settings: time 150.0 min
A2780 [8] = test: Cytotoxicity against human A2780 cells at < 100 uM assessed as reduction in cell viability incubated for 72 hrs by MTT assay; assay type: functional, cell-based
A2780 cisR = test: Inhibition of class I/6 HDAC (unknown origin) in cisplatin resistant human A2780 cisR cells at < 10 uM using Boc-Lys(epsilon-Ac)-AMC as substrate preincubated with compound for 18 hrs followed by substrate addition and measured after 3 hrs by NOVOstar microplate reader analysis; assay type: cell-based
[9] = target: Histone deacetylase 3/Nuclear receptor corepressor 2 (HDAC3/NCoR2) (Homo sapiens) (UniProt O15379+Q9Y618); test: as §1, with “His” for “6-his/FLAG”, “tagged” for “tagged full length”, “HDAC3” for “HDAC1”, “428” for “482”, “residues)/N-terminal GST-tagged human NcoR2” for “residues)”; settings: time 150.0 min
[10] = target: T4, Protein deacetylase HDAC6 (Homo sapiens, UniProt Q9UBN7); test: (§2) Inhibition of N-terminal GST-tagged full length recombinant human HDAC6 (1 to 1215 end residues) expressed in sf9 cells using ZMAL (Z-Lys(Ac)-AMC as fluorogenic substrate preincubated with compound for 60 mins followed by substrate addition and measured after 90 mins by fluorescence based microplate reader analysis
T4 sequence (Q9UBN7 whole entry): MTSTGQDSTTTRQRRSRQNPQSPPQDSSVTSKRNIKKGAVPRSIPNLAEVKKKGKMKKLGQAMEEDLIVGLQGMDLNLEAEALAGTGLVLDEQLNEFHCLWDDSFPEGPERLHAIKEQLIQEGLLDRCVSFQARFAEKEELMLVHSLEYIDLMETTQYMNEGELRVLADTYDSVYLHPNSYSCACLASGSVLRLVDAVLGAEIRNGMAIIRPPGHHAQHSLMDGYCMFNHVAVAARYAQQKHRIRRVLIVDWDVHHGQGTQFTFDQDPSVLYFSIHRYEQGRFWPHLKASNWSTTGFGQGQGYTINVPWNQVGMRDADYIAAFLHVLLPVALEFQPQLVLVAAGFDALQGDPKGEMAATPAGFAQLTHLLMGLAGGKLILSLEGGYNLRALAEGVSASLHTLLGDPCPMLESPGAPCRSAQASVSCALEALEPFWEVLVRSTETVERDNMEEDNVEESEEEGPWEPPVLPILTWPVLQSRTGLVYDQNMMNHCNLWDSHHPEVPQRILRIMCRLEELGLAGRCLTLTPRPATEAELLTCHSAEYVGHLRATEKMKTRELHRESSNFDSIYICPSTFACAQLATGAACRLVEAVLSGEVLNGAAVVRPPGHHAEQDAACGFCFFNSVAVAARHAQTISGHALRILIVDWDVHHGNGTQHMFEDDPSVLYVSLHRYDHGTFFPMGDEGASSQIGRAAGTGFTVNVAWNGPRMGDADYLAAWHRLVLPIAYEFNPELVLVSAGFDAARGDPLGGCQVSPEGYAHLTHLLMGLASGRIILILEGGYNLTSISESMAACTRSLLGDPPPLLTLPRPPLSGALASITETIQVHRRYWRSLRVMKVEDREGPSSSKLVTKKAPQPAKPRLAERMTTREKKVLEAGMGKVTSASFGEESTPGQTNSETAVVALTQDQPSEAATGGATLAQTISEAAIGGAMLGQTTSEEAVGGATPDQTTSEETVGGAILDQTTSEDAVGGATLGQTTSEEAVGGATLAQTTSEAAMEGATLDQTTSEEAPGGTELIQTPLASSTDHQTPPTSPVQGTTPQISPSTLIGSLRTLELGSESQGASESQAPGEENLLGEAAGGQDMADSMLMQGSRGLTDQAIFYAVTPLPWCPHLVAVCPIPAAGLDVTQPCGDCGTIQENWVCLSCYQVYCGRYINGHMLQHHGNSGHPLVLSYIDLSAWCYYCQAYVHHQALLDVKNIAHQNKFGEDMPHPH

[11] = target: Histone deacetylase 2 (Homo sapiens) (UniProt Q92769); test: Inhibition of C-terminal FLAG tagged full length human recombinant HDAC2 (1 to 488 end residues) expressed in sf9 cells at > 10 uM using ZMAL (Z-Lys(Ac)-AMC as fluorogenic substrate preincubated with compound for 60 mins followed by substrate addition and measured after 90 mins by fluorescence based microplate reader analysis relative to control
[12] = target: T5, Protein deacetylase HDAC6 (Homo sapiens) (UniProt Q9UBN7); test: as §2, with “cells at > 10 uM” for “cells”, “analysis relative to control” for “analysis”; settings: time 150.0 min
T5 sequence (whole entry): T4 sequence (Q9UBN7 whole entry)

Cal27CisR [13] = test: Cytotoxicity against cisplatin resistant human Cal27CisR cells at < 10 uM assessed as reduction in cell viability incubated for 72 hrs by MTT assay; assay type: functional, cell-based
A2780cisR [14] = test: Cytotoxicity against cisplatin resistant human A2780 cisR cells at < 100 uM assessed as reduction in cell viability incubated for 72 hrs by MTT assay; assay type: functional, cell-based
Histone deacetylase 4 [15] = target: T6, Histone deacetylase 4 (Homo sapiens, UniProt P56524); test: Inhibition of recombinant HDAC4 (unknown origin) using Bos-Lys(TFA)-AMC as substrate preincubated with compound for 5 mins and measured after 90 mins by NOVOstar microplate reader analysis
MV4-11 = test: cells; settings: Homo sapiens, MV4-11, 72 h
Description: Cytotoxicity against human MV4-11 cells harboring wild type p53 assessed as cell viability incubated for 72 hrs by MTT assay

CAL-27 [16] = test: Induction of apoptosis in human CAL-27 cells assessed as caspase-3/7 activation at 0.5 uM incubated for 48 hrs by capase3/7 green dye based analysis relative to control; assay type: functional
A2780cisR [17] = test: Induction of apoptosis in cisplatin resistant human A2780 cisR cells assessed as caspase-3/7 activation at 2 uM incubated for 48 hrs by capase3/7 green dye based analysis relative to control; assay type: functional
cells = settings: Homo sapiens, Cal27CisR, 72 h
Description: Cytotoxicity against cisplatin resistant human Cal27CisR cells assessed as reduction in cell viability incubated for 72 hrs by MTT assay

A2780 [18] = test: Induction of apoptosis in human A2780 cells assessed as caspase-3/7 activation at 2 uM incubated for 48 hrs by capase3/7 green dye based analysis relative to control; assay type: functional
[19] = Induction of apoptosis in cisplatin resistant human Cal27CisR cells assessed as caspase-3/7 activation at 0.5 uM incubated for 48 hrs by capase3/7 green dye based analysis relative to control; assay type: functional
[20] = Cytotoxicity against human HEK293 cells assessed as reduction in cell viability incubated for 72 hrs by MTT assay; assay type: toxicity, cell-based
A2780cisR [21] = test: cells; settings: Homo sapiens, 72 h
HL-60 = test: cells; settings: Homo sapiens, HL-60, 72 h
Description: Cytotoxicity against human HL-60 cells harboring p53 null assessed as cell viability incubated for 72 hrs by MTT assay

CAL-27 [22] = test: cells; settings: Homo sapiens, CAL-27, 72 h
Description: Cytotoxicity against human CAL-27 cells assessed as reduction in cell viability incubated for 72 hrs by MTT assay

Histone deacetylase 1 [23] = target: T3, Histone deacetylase 1; test: Inhibition of FLAG tagged full length human HDAC1 expressed in HEK293T cells using acyl-H3K9 peptide as substrate preincubated with compound for 20 mins followed by substrate addition and measured after 120 mins by HPLC analysis
Histone deacetylase 4 [24] = target: T6, Histone deacetylase 4; test: Inhibition of FLAG tagged full length human HDAC4 expressed in HEK293T cells using acyl-H3K9 peptide as substrate preincubated with compound for 20 mins followed by substrate addition and measured after 120 mins by HPLC analysis
Histone deacetylase 8 [25] = target: T1, Histone deacetylase 8; test: Inhibition of FLAG tagged full length human HDAC8 expressed in HEK293T cells using acyl-H3K9 peptide as substrate preincubated with compound for 20 mins followed by substrate addition and measured after 120 mins by HPLC analysis; assay type: cell-based
Histone deacetylase 3 = Histone deacetylase 3 (Homo sapiens, UniProt O15379); test: Inhibition of HDAC3 (unknown origin)
[26] = Lipophilicity, logD of the compound in 1-octanol/PBS buffer at pH 7.4 by HPLC/UV analysis; assay type: physicochemical; settings: octanol/water

T3 sequence (Q13547 whole entry): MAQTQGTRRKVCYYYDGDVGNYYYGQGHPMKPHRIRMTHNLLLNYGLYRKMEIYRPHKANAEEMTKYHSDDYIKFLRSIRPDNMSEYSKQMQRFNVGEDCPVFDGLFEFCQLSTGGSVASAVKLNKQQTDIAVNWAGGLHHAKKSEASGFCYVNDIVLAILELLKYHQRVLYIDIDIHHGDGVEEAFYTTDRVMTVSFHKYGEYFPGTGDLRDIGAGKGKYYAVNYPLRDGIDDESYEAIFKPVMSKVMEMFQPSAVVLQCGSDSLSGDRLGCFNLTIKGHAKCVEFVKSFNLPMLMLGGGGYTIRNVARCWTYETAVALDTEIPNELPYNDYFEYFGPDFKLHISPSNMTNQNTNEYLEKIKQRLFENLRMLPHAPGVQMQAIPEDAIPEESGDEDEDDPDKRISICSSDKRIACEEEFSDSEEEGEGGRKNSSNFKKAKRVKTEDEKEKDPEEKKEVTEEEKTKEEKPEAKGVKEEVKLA
T6 sequence (P56524 whole entry): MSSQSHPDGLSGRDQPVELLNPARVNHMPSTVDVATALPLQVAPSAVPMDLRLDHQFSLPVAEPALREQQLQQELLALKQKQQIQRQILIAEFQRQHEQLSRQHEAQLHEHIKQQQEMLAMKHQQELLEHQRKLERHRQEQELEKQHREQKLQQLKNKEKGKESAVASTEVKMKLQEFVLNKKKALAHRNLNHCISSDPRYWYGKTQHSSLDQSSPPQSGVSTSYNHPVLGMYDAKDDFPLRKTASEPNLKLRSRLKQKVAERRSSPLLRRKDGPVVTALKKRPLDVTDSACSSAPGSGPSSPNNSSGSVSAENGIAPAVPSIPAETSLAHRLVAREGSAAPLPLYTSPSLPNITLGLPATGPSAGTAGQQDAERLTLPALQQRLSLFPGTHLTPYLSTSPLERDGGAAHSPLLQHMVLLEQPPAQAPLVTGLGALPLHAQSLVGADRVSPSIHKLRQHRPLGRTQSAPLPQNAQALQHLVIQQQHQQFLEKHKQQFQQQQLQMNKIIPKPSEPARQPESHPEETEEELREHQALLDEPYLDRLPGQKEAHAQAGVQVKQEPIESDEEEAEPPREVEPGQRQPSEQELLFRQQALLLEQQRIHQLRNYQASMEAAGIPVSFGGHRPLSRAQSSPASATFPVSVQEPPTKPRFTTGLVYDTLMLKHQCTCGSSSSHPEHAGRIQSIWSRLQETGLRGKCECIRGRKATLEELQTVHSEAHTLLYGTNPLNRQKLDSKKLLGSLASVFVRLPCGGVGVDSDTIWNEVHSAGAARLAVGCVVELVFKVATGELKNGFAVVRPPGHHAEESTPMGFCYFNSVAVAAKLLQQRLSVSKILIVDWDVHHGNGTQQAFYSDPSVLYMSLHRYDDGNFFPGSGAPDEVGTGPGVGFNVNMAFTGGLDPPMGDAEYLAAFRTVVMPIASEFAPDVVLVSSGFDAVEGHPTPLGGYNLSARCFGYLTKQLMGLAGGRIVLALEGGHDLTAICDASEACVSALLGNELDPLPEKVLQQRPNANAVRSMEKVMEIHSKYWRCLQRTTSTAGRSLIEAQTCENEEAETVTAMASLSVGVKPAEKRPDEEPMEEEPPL
Histone deacetylase 2 (Homo sapiens), sequence (Q92769 whole entry): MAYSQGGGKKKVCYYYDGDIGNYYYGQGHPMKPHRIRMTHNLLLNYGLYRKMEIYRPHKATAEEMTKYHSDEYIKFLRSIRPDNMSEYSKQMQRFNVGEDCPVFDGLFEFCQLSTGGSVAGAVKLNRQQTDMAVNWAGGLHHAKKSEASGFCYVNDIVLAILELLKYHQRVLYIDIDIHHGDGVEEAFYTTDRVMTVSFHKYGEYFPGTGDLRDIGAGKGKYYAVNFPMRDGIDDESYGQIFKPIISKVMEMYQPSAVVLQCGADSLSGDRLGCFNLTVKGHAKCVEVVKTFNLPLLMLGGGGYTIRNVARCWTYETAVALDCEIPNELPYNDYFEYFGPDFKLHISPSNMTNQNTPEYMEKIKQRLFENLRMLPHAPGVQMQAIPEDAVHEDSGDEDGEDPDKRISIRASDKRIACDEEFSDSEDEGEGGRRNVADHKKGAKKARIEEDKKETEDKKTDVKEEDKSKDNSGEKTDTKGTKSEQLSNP
Histone deacetylase 3, sequence (O15379 whole entry): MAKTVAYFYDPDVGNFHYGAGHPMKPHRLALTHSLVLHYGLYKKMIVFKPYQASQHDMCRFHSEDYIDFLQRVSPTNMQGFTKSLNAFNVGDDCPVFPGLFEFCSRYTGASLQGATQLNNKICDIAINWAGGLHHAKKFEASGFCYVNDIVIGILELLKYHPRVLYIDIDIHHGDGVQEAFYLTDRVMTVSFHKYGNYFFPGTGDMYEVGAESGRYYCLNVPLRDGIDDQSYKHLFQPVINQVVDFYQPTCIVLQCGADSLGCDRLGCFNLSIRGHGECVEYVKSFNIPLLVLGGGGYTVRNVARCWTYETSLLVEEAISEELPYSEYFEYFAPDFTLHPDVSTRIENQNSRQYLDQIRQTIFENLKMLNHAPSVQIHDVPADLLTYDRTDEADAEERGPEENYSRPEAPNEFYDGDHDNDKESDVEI

CN(C)c1ccc(C(=O)N(CC(=O)NCc2ccccc2)Cc2ccc(C(=O)NNC/C=C/c3ccccc3)cc2)cc1
IC50 (Histone deacetylase 8 [1]): > 10 µM
Activity (CAL-27 [2]): inactive
inhibition (CAL-27 [3]): inactive
inhibition (Cal27CisR [4]): inactive
inhibition [5]: < 25%
inhibition (A2780 [6]): inactive
inhibition (Histone deacetylase 1 [7]): 37%
Activity (A2780 [8]): inactive
inhibition (A2780 cisR): inactive
inhibition [9]: 32%
IC50 [10]: > 10 µM
inhibition [11]: < 25%
inhibition [12]: < 25%
Activity (Cal27CisR [13]): inactive
Activity (A2780cisR [14]): inactive
IC50 (Histone deacetylase 4 [15]): > 10 µM

Nc1ccccc1NC(=O)c1ccc(CNC(=O)OCc2cccnc2)cc1 [ENTINOSTAT]
IC50 (MV4-11): 0.41 µM
Activity (CAL-27 [16]): <5%
Activity (A2780cisR [17]): 15%
IC50 (cells): 3.63 µM
Activity (A2780 [18]): 10%
Activity [19]: <5%
IC50 at 72 h [20]: 7.11 µM
IC50 (A2780cisR [21]): 5.57 µM
IC50 (HL-60): 0.939 µM
IC50 (CAL-27 [22]): 2.96 µM

CCCCCCCCCCCCCCCCNNC(=O)c1cccs1
IC50 (Histone deacetylase 1 [23]): > 100 µM
IC50 (Histone deacetylase 4 [24]): > 100 µM
IC50 (Histone deacetylase 8 [25]): > 100 µM

CN(C)c1ccc(C(=O)N(CC(=O)NCc2ccccc2)Cc2ccc(C(=O)Nc3cc(-c4ccncc4)ccc3N)cc2)cc1
IC50 (Histone deacetylase 3): > 6.67 µM
logD [26]: 3.16
